Measured values reported in patent US7449495B2, “Retinoid derivatives with antiangiogenic, antitumoral and proapoptotic activities” (Sigma-Tau Industrie Farmaceutiche Riunite S.p.A., priority 2001, dated 2008).

Experiments:
[1] = test system: human ovarian carcinoma A2780; test: Antitumoral activity in human ovarian carcinoma model A2780; type: in vivo, CD1 nu/nu mice; details: qdx5x3w
Method: The human ovarian carcinoma cells A2780, A2780/Dx and NCIH460 were maintained in RPMI-1640 containing 10% FCS, 2 mM glutamine, 50 μg/ml gentamicin, at 37° C. in a humidified atmosphere containing 5% CO2. The cells were trypsinised, collected in complete medium, centrifuged at approx. 1100 rpm for 10 minutes and the precipitate resuspended in Hank's 199 Medium; this operation was carried out twice. The cells were resuspended in Hank's 199 Medium at a density of 20×10^6/ml and 0.1 ml (equal to 2×10^6 cells/mouse) were injected s.c. into the right flank of CD1 nu/nu 6 week-old, female mice.
The ST1926 solution was prepared immediately before use and solubilised in cremophor:ethanol 1:1 and subsequently diluted 1:4 in buffered saline solution. The animal treatments were administered in a volume of 10 ml/kg. The treatment protocol for ST1926 at different doses was for 5 consecutive days (qd×5), beginning one day following tumor cell inoculation and repeated for 3 cycles. Measurements of tumor dimensions were performed using a digital calliper (Vernier Caliper) twice weekly, from the time in which the mass was measurable. The tumor mass was evaluated from the size of the two principal dimensions (length and breadth), expressed in mm, applying the formula (length×breadth^2)/2, that is, the tumor volume in mm3. For each experimental group, the percentage of tumor volume inhibition was calculated (TVI %), with respect to the control, namely (100−(T/C %). TVI was evaluated 2 days after the final administration of ST1926.
The mice were measured until the control group tumors had reached a weight of 2 g, then the mice were sacrificed by cervical dislocation.
A comparison between the TVI values obtained for each group was performed using the non parametric Mann Whitney test for non-paired data, using the Instat software from GraphPad inc.
The mice were weighed prior to each treatment, firstly, so as to be able to administer the correct quantity of substance based on the possible changes in weight observed throughout the course of administration of the drug, and also to record the maximum weight loss throughout the treatment (BWL % max).

[2] = test system: chicken chorioallantoic membrane vessels, bFGF induced; test: Angiostatic activity in chicken chorioallantoic membrane (CAM) model; type: in vivo; details: bFGF 0.05 + compound 0.25 μg/embryo
Source text: The chicken chorioallantoic membrane is a very vascularised membrane in which the vessels make their appearance at the 4th day of development, develop an arteriovenal system by the 8th day of development, and actively proliferate until the 11th day.
The aim of the study was to follow vasal development in the CAM under basal conditions and in the presence of an inducer bFGF (basic Fibroblast Growth Factor) of vasoproliferation. This study used chicken embryonal eggs at the initial stage of their development. On the 3rd day of development an operation to open the shells was performed to make the vessels of the CAM visible. The treatment was administered on the 9th day of development by applying a fragment of sterile gelatine (GELFOAM Pharmacia-Upjohn) about 1 mm^3, to the CAM surface, onto which was administered the bFGF (50 ng/embryo) or the products in question, for 3 consecutive days.
The evaluation of the effect of the molecule on vasoproliferation was obtained by a comparison of the vessels at the time of zero treatment with these of later times (12th day).

[3] = test system: F9 embryonic teratocarcinoma cells; details: cited from earlier work

O=C(O)/C=C/c1ccc(-c2ccc(O)c(C34CC5CC(CC(C5)C3)C4)c2)cc1 [ST1926, E-4-(3-(1-adamantyl)-4-hydroxyphenyl)cinnamic acid]
BWL % Max ([1]; A2780, 5 mg/kg p.o.): 3%
Lethality ([1]; A2780, 5 mg/kg p.o.): 0/8
TVI % ± SE ([1]; A2780, 5 mg/kg p.o.): *34 ± 8%
BWL % Max ([1]; A2780, 10 mg/kg p.o.): 5%
Lethality ([1]; A2780, 10 mg/kg p.o.): 0/8
TVI % ± SE ([1]; A2780, 10 mg/kg p.o.): *39 ± 5%
Δvessels, change vs bFGF alone [2]: (−53%)
12th day (72 hours), number of vessels per sponge ([2]; mean ± SE): 12 ± 2 vessels per sponge
Δvessels ([2]; mean ± SE): 9 ± 2 vessels per sponge
activity in the F9 assay compared with compound 1 (in words) [3]: lower activities
